Results reported in ChEMBL document CHEMBL3813666, “Discovery of 3-benzyl-1,3-benzoxazine-2,4-dione analogues as allosteric mitogen-activated kinase kinase (MEK) inhibitors and anti-enterovirus 71 (EV71) agents” (Bioorg Med Chem, 2016).
Calls of active or inactive are those of the source. The calls are words filed in the database; no cut-off is given here.

Key:
[1] = target: Serine/threonine-protein kinase B-raf (Homo sapiens, UniProt P15056, Y340D/Y341D)
[2] = Non-competitive inhibition of N-terminal GST-tagged human BRAF/MEK1/RAF1 Y340D/Y341D double mutant measured after 2 hrs in presence of 300 uM of ATP by TR-FRET assay
[3] = target: Dual specificity mitogen-activated protein kinase kinase; MEK1/2 (Homo sapiens) (UniProt P36507+Q02750); experiment: Inhibition of MEK1/2 phosphorylation in human rhabdomyosarcoma cells infected with EV71 BC08 GU475127 at 6.25 to 25 uM pre-treated for 1 hr followed by viral infection measured after 24 hrs by western blotting analysis
[4] = Therapeutic index, ratio of CC50 for human rhabdomyosarcoma cells to EC50 for EV71 BC08 GU475127 infected in human rhabdomyosarcoma cells; settings: read-out: Ratio CC50/EC50
Enterovirus A71 [5] = experiment: Inhibition of VP1 expression in human rhabdomyosarcoma cells infected with EV71 BC08 GU475127 pre-treated for 1 hr followed by viral infection measured after 24 hrs by western blotting analysis
Enterovirus A71 [6] = experiment: Antiviral activity against EV71 BC08 GU475127 infected in human rhabdomyosarcoma cells assessed as reduction in viral induced cytopathic effect measured after 24 hrs by phase-contrast microscopy; format: functional, organism-based; settings: Enterovirus A, BC08 GU475127, 24 h
[7] = Non-competitive inhibition of N-terminal GST-tagged human BRAF/MEK1/RAF1 Y340D/Y341D double mutant measured after 2 hrs in presence of 100 uM of ATP by TR-FRET assay
[8] = Non-competitive inhibition of N-terminal GST-tagged human BRAF/MEK1/RAF1 Y340D/Y341D double mutant measured after 2 hrs in presence of 33.33 uM of ATP by TR-FRET assay
[9] = Cytotoxicity activity against human rhabdomyosarcoma cells after 24 hrs by MTT assay; format: cell-based, Rhabdomyosarcoma cell
[10] = target: Dual specificity mitogen-activated protein kinase kinase 1 (Homo sapiens) (UniProt Q02750); settings: at 6.25 to 25 µM
Sequence of Dual specificity mitogen-activated protein kinase kinase 1 (Homo sapiens) (Q02750 whole entry): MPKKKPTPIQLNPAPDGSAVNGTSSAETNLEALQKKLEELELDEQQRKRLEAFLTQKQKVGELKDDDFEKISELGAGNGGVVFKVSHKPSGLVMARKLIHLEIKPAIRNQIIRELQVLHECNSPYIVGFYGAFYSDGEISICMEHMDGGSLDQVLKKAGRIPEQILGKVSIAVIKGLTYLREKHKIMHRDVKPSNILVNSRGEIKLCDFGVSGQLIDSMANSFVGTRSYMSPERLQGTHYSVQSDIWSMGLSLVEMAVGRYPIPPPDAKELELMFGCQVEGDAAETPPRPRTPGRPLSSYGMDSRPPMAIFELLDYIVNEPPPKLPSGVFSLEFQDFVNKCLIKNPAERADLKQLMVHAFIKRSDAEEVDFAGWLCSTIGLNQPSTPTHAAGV

Sequence of Serine/threonine-protein kinase B-raf (P15056 whole entry, looked up, stated change not applied): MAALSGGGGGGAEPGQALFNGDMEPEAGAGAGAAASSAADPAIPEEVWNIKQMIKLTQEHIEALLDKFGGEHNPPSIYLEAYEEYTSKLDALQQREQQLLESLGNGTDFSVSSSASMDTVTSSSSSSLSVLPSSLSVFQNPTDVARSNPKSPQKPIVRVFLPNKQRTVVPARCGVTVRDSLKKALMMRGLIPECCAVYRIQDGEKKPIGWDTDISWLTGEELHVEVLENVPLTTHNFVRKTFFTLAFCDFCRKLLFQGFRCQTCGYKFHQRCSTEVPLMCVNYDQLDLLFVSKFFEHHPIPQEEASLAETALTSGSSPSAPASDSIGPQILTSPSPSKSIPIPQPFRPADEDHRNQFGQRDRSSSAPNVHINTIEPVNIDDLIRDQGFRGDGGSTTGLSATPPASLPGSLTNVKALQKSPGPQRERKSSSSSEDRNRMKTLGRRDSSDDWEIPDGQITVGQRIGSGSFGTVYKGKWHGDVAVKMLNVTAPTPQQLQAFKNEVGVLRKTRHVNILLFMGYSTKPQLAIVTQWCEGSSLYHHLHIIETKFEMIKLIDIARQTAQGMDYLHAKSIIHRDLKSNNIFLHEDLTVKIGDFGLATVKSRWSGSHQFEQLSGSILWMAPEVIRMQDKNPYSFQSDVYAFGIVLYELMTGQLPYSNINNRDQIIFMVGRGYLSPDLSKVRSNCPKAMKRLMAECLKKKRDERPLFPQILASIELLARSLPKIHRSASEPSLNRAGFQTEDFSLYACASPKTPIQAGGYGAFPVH
Sequence of Dual specificity mitogen-activated protein kinase kinase; MEK1/2 (Homo sapiens) (P36507 whole entry, looked up): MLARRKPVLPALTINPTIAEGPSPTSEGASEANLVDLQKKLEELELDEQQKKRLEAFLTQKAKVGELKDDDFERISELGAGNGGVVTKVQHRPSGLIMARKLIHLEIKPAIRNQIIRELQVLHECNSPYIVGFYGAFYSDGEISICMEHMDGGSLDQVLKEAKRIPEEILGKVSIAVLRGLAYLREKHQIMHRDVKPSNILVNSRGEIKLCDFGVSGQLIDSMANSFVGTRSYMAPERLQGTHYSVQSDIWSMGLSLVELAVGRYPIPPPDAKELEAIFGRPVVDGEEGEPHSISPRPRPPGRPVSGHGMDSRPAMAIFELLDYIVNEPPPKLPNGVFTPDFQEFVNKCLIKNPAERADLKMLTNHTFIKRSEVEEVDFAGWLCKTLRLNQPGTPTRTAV
Sequence of Dual specificity mitogen-activated protein kinase kinase; MEK1/2 (Homo sapiens) (Q02750 whole entry, looked up): as the sequence (Q02750 whole entry) above

Row | Structure (SMILES) | IC50 [1] [µM] | also measured
1 | CCS(=O)(=O)Oc1ccc2c(=O)n(Cc3cccc(NS(=O)(=O)NC)c3F)c(=O)oc2c1 | 0.67 | 
2 | CN(C)C(=O)Oc1ccc2c(=O)n(Cc3cccc(NS(C)(=O)=O)c3)c(=O)oc2c1 | 5.92 | 
3 | CC(=O)Nc1cccc(Cn2c(=O)oc3cc(OC(=O)N(C)C)ccc3c2=O)c1 | > 10 | 
4 | CNS(=O)(=O)Nc1cccc(Cn2c(=O)oc3cc(OS(C)(=O)=O)ccc3c2=O)c1F | 2.54 | 
5 | CN(C)C(=O)Oc1ccc2c(=O)n(Cc3cccc(NS(=O)(=O)NCc4ccccc4)c3F)c(=O)oc2c1 | 1.49 | 
6 | CN(C)C(=O)Oc1ccc2c(=O)n(Cc3ccc(F)cc3)c(=O)oc2c1 | > 10 | 
7 | CN(C)C(=O)Oc1ccc2c(=O)n(Cc3cccc(NS(=O)(=O)NCC(F)(F)F)c3F)c(=O)oc2c1 | 0.42 | 
8 | CCC(=O)Oc1ccc2c(=O)n(Cc3cccc(NS(=O)(=O)NC)c3F)c(=O)oc2c1 | 0.23 | 
9 | CNS(=O)(=O)Nc1cccc(Cn2c(=O)oc3cc(OC(C)=O)ccc3c2=O)c1F | 0.61 | 
10 | CN(C)C(=O)Oc1ccc2c(=O)n(Cc3ccccc3F)c(=O)oc2c1 | > 10 | 
11 | CN(C)C(=O)Oc1ccc2c(=O)n(Cc3ccc(F)c(NS(C)(=O)=O)c3)c(=O)oc2c1 | 9.87 | 
12 | CNS(=O)(=O)Nc1cccc(Cn2c(=O)oc3cc(OC(=O)N(C)C)ccc3c2=O)c1F | 0.055 | IC50 [2]: 0.054 µM; inhibition [3]: Active; selectivity ratio [4]: > 98; inhibition (Enterovirus A71 [5]): Dose-dependent effect; EC50 (Enterovirus A71 [6]): 1.02 µM; IC50 [7]: 0.056 µM; IC50 [8]: 0.181 µM; CC50 at 24 h [9]: > 100 µM; inhibition [10]: Active
13 | CNC(=O)c1cc(Oc2ccc(NC(=O)Nc3ccc(Cl)c(C(F)(F)F)c3)cc2)ccn1 [SORAFENIB] |  | CC50 at 24 h [9]: 7.05 µM
14 | CCS(=O)(=O)Nc1cccc(Cn2c(=O)oc3cc(OC(=O)N(C)C)ccc3c2=O)c1F | 0.2 | 
15 | CS(=O)(=O)Nc1cccc(Cn2c(=O)oc3cc(OC(=O)c4ccccc4)ccc3c2=O)c1F | > 10 | 
16 | O=C(NOC[C@H](O)CO)c1ccc(F)c(F)c1Nc1ccc(I)cc1F |  | inhibition (Enterovirus A71 [5]): Dose-dependent effect
17 | CC(C)NS(=O)(=O)Nc1cccc(Cn2c(=O)oc3cc(OC(=O)N(C)C)ccc3c2=O)c1F | 0.21 | 
18 | CN(C)C(=O)Oc1ccc2c(=O)n(Cc3cccc([N+](=O)[O-])c3)c(=O)oc2c1 | > 10 | 
19 | COc1ccc2c(=O)n(Cc3cccc(NS(=O)(=O)NCCC#N)c3F)c(=O)oc2c1 | > 10 | 
20 | CCCC(=O)Oc1ccc2c(=O)n(Cc3cccc(NS(=O)(=O)NC)c3F)c(=O)oc2c1 | 1.2 | 
21 | CNS(=O)(=O)Nc1cccc(Cn2c(=O)oc3cc(OC(=O)C(C)C)ccc3c2=O)c1F | 0.72 | 
22 | CN(C)C(=O)Oc1ccc2oc(=O)n(Cc3cccc(NS(C)(=O)=O)c3F)c(=O)c2c1 | > 10 | 
23 | CN(C)C(=O)Oc1ccc2c(=O)n(Cc3cccc(NS(=O)(=O)Nc4ccccc4)c3F)c(=O)oc2c1 | 1.64 | 
24 | CN(C)C(=O)Oc1ccc2c(=O)n(Cc3ccccc3NS(C)(=O)=O)c(=O)oc2c1 | > 10 | 
25 | CN(C)C(=O)Oc1ccc2c(=O)n(Cc3cccc(NS(C)(=O)=O)c3F)c(=O)oc2c1 | 0.3 | 
26 | CN(C)C(=O)Oc1ccc2c(=O)n(Cc3ccc(NS(C)(=O)=O)cc3)c(=O)oc2c1 | > 10 | 
27 | CN(C)C(=O)Oc1ccc2c(=O)n(Cc3cccc(NS(N)(=O)=O)c3F)c(=O)oc2c1 | 0.84 | 
28 | CN(C)C(=O)Oc1ccc2c(=O)n(Cc3cccc(NS(=O)(=O)NCCC#N)c3F)c(=O)oc2c1 | 0.06 | inhibition [3]: Active; selectivity ratio [4]: > 25; inhibition (Enterovirus A71 [5]): Dose-dependent effect; EC50 (Enterovirus A71 [6]): 3.92 µM; CC50 at 24 h [9]: > 100 µM
